Publication PMC6013247, “Preclinical characterization of INCB053914, a novel pan-PIM kinase inhibitor, alone and in combination with anticancer agents, in models of hematologic malignancies” (PLoS ONE, 2018)

Legend:
Assay in all cases: Cell proliferation assay ([3H]-thymidine)
Type in all cases: cell-based
CCRF-CEM = conditions: Homo sapiens; CCRF-CEM (T-ALL); read-out: Mean (± SD) GI50
Procedure: (§1) The antiproliferative effects of INCB053914 on hematologic tumor cells were investigated using assays described in the Supporting Information (S2 File).
(§2) Cell proliferation assays. […] After 3 to 4 days, [^3H]-thymidine (1 μCi/well) (PerkinElmer) in PBS (10 μl) was added to the cell culture for an additional 12 hours. The incorporated radioactivity was separated by filtration with water through GF/B filters (Packard Bioscience, Meriden, Connecticut) and measured by liquid scintillation counting with a TopCount (Packard Bioscience).

EOL = EOL (AML)
Procedure: as §1, §2

GDM-1 = conditions: Homo sapiens; GDM-1 (AML); read-out: Mean (± SD) GI50
Procedure: as §1, §2

HBL-1 = conditions: HBL1; HBL-1 (DLBCL); read-out: Mean (± SD) GI50
Procedure: as §1, §2

INA-6 = INA-6 (MM)
Procedure: as §1, §2

Jeko-1 = Jeko-1 (MCL)
Procedure: as §1, §2

Jurkat = Jurkat (T-ALL)
Procedure: as §1, §2

KARPASS-422 = conditions: read-out: Mean (± SD) GI50
Procedure: as §1, §2

KG-1a = KG-1a (AML)
Procedure: as §1, §2

KMS-11 = KMS-11 (MM)
Procedure: as §1, §2

KMS-12-BM = conditions: Homo sapiens; KMS-12-BM (MM); read-out: Mean (± SD) GI50
Procedure: as §1, §2

KMS-12-PE = KMS-12-PE (MM)
Procedure: as §1, §2

KMS-28-BM = KMS-28-BM (MM)
Procedure: as §1, §2

KMS-34 = KMS-34 (MM)
Procedure: as §1, §2

Kasumi-1 = Kasumi-1 (AML)
Procedure: as §1, §2

Kasumi-3 = Kasumi-3 (AML)
Procedure: as §1, §2

L363 = L363 (MM)
Procedure: as §1, §2

MM1.S = MM1.S (MM)
Procedure: as §1, §2

MOLM-13 = conditions: Homo sapiens; MOLM-13 (AML); read-out: Mean (± SD) GI50
Procedure: as §1, §2

MOLP-2 = MOLP-2 (MM)
Procedure: as §1, §2

MOLP-8 = MOLP-8 (MM)
Procedure: as §1, §2

OCI-LY-10 = OCI-LY-10 (DLBCL)
Procedure: as §1, §2

OCI-LY-19 = OCI-LY-19 (DLBCL)
Procedure: as §1, §2

OCI-LY-3 = conditions: Homo sapiens, OCI-Ly3; OCI-LY-3 (DLBCL); read-out: Mean (± SD) GI50
Procedure: as §1, §2

RPMI8226 = RPMI8226 (MM)
Procedure: as §1, §2

Reh = Reh (T-ALL)
Procedure: as §1, §2

THP-1 = THP-1 (AML)
Procedure: as §1, §2

Toledo = Toledo (DLBCL)
Procedure: as §1, §2

U2932 = U2932 (DLBCL)
Procedure: as §1, §2

WSU-NHL = WSU-NHL (DLBCL)
Procedure: as §1, §2

[1] = Homo sapiens, read-out: Mean (± SD) GI50

SMILES: C[C@H]1CN(c2c(NC(=O)c3ccc(F)c(-c4c(F)cccc4F)n3)cnc3c2CC[C@H]3O)C[C@@H](N)[C@@H]1O.O=P(O)(O)O [INCB053914, N-((R)-4-((3R,4R,5S)-3-amino-4-hydroxy-5-methylpiperidin-1-yl)-7-hydroxy-6,7-dihydro-5H-cyclopenta[b]pyridin-3-yl)-6-(2,6-difluorophenyl)-5-fluoropicolinamide phosphate]
- GI50 (CCRF-CEM): > 3000 nM
- Mean (SD) maximum inhibition (EOL): 99.5 ± 0.6%
- GI50 (EOL; read-out: Mean (± SD) GI50): 18.5 ± 6.1 nM
- GI50 (GDM-1): > 3000 nM
- GI50 (HBL-1): > 3000 nM
- Mean (SD) maximum inhibition (INA-6): 99.0 ± 0.2%
- GI50 (INA-6; read-out: Mean (± SD) GI50): 24.8 ± 4.6 nM
- GI50 (Jeko-1; [1]): 117 ± 45.5 nM
- Mean (SD) maximum inhibition (Jeko-1): 91.3 ± 2.9%
- GI50 (Jurkat; [1]): 931 ± 800 nM
- Mean (SD) maximum inhibition (Jurkat): 66.0 ± 7.0%
- GI50 (KARPASS-422): > 3000 nM
- GI50 (KG-1a; [1]): 14.3 ± 4.9 nM
- Mean (SD) maximum inhibition (KG-1a): 94.5 ± 1.5%
- GI50 (KMS-11; [1]): 81.8 ± 8.1 nM
- Mean (SD) maximum inhibition (KMS-11): 93.0 ± 2.5%
- GI50 (KMS-12-BM): 34.2 ± 19.9 nM
- GI50 (KMS-12-PE; [1]): 89.7 ± 50.9 nM
- Mean (SD) maximum inhibition (KMS-12-PE): 97.0 ± 4.7%
- Mean (SD) maximum inhibition (KMS-28-BM): 86.0 ± 3.7%
- GI50 (KMS-28-BM; read-out: Mean (± SD) GI50): 36.7 ± 9.9 nM
- Mean (SD) maximum inhibition (KMS-34): 98.8 ± 0.5%
- GI50 (KMS-34; read-out: Mean (± SD) GI50): 87.1 ± 28 nM
- GI50 (Kasumi-1; [1]): 206 ± 76.3 nM
- Mean (SD) maximum inhibition (Kasumi-1): 76.7 ± 4.6%
- Mean (SD) maximum inhibition (Kasumi-3): 84.3 ± 7.2%
- GI50 (Kasumi-3; read-out: Mean (± SD) GI50): 4.9 nM
- GI50 (L363; Homo sapiens, L-363, read-out: Mean (± SD) GI50): 115 ± 89.4 nM
- Mean (SD) maximum inhibition (L363): 90.3 ± 8.1%
- GI50 (MM1.S; [1]): 55.4 ± 38.1 nM
- Mean (SD) maximum inhibition (MM1.S): 88.3 ± 3.1%
- GI50 (MOLM-13): > 3000 nM
- Mean (SD) maximum inhibition (MOLP-2): 95.4 ± 3.2%
- GI50 (MOLP-2; read-out: Mean (± SD) GI50): 23.8 ± 10.1 nM
- GI50 (MOLP-8; [1]): 13.2 ± 7.7 nM
- Mean (SD) maximum inhibition (MOLP-8): 93.3 ± 1.7%
- GI50 (OCI-LY-10; Homo sapiens, OCI-Ly10, read-out: Mean (± SD) GI50): 41.7 ± 29.4 nM
- Mean (SD) maximum inhibition (OCI-LY-10): 96.3 ± 5.5%
- GI50 (OCI-LY-19; Homo sapiens, OCI-LY19, read-out: Mean (± SD) GI50): 110 ± 53.6 nM
- Mean (SD) maximum inhibition (OCI-LY-19): 69.7 ± 5.1%
- GI50 (OCI-LY-3): > 3000 nM
- GI50 (RPMI8226; Homo sapiens, RPMI-8226, read-out: Mean (± SD) GI50): 230 ± 132 nM
- Mean (SD) maximum inhibition (RPMI8226): 96.8 ± 2.2%
- GI50 (Reh; [1]): 33.7 ± 24.3 nM
- Mean (SD) maximum inhibition (Reh): 94.3 ± 5.7%
- GI50 (THP-1; [1]): 2050 nM
- Mean (SD) maximum inhibition (THP-1): 76.3 ± 22.3%
- GI50 (Toledo; [1]): 70.7 ± 25.1 nM
- Mean (SD) maximum inhibition (Toledo): 97.6 ± 1.5%
- GI50 (U2932; [1]): 34.5 ± 10.1 nM
- Mean (SD) maximum inhibition (U2932): 83.6 ± 8.0%
- GI50 (WSU-NHL; [1]): 1270 nM
- Mean (SD) maximum inhibition (WSU-NHL): 76.8 ± 10.5%
